According to paper PMC5046737, “Target and Non-target Site Mechanisms Developed by Glyphosate-Resistant Hairy beggarticks (Bidens pilosa L.) Populations from Mexico” (Frontiers in Plant Science, 2016):

Key:
[1] = tested on: T1, EPSPS of the resistant R2 population (EPSPS1 and EPSPS2); experiment: EPSPS activity in leaf extract, continuous phosphate release (EnzChek); assay type: biochemical, Bidens pilosa; settings: raw leaf extract, mixed isozymes; no EPSPS mutation found in this resistant population; read-out: I50
T1 construct: native enzyme in raw leaf extract; isozyme mix unknown

[2] = tested on: T2, EPSPS of the susceptible (S) population (EPSPS1 and EPSPS2); experiment: as above; assay type: biochemical, Bidens pilosa; settings: raw leaf extract, mixed isozymes; 10 min at 360 nm; glyphosate 0-10000 μM; text prints 0.95 μM; read-out: I50
T2 construct: native enzyme in raw leaf extract; both isozymes expressed
From the text: EPSPS activity in leaf extract, continuous phosphate release (EnzChek) on EPSPS of the susceptible (S) population (EPSPS1 and EPSPS2)

[3] = tested on: EPSPS of the resistant R1 population (EPSPS1 and EPSPS2, mixed alleles); settings: read-out: I50; raw leaf extract, mixed isozymes and alleles (wild type, P106S, T102I/P106S); stated gain
From the text: EPSPS activity in leaf extract, continuous phosphate release (EnzChek) on EPSPS of the resistant R1 population (EPSPS1 and EPSPS2, mixed alleles)

Compound: O=C(O)CNCP(=O)(O)O [glyphosate]
- IC50 [1]: 8.2 ± 1.1 µM
- IC50 [2]: 960 nM
- IC50 [3]: 123 ± 2.1 µM
